Test results reported in US11046690B2, “Pyridazinones and methods of use thereof” (Goldfinch Bio, Inc., priority 2018, dated 2021).

Molecular target: T1, TRPC4 (Homo sapiens, UniProt Q9UBN4)
T1 construct: expressed in transfected cells
T1 sequence (Q9UBN4 1-982 isoform Q9UBN4-5): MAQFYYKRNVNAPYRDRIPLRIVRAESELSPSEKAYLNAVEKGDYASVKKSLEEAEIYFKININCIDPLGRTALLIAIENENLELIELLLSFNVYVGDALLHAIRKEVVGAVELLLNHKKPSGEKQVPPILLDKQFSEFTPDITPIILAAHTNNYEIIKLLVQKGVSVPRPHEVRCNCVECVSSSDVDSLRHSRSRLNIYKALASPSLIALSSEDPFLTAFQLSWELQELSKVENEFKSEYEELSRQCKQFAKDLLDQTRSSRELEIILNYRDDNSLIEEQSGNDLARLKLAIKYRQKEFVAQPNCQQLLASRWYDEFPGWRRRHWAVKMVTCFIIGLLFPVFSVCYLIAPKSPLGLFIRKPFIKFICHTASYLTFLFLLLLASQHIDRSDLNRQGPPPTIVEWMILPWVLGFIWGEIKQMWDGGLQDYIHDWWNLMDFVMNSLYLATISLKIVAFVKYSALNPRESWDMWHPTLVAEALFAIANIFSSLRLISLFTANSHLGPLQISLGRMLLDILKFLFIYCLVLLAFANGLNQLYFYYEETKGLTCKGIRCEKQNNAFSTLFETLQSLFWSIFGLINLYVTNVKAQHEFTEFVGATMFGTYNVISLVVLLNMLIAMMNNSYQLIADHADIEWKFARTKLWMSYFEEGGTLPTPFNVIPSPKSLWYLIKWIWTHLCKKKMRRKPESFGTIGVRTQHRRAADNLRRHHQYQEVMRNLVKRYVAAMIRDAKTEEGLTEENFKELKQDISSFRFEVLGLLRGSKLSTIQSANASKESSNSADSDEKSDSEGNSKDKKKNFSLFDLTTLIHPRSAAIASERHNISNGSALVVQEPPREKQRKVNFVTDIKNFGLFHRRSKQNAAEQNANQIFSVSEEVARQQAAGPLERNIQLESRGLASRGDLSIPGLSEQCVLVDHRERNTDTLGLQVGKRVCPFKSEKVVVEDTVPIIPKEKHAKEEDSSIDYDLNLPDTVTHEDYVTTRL
Experiment: TRPC4 activity assay (FLIPR calcium fluorescence, Englerin A stimulation)
Type: cell-based
Details: HEK-TREx hTRPC4 cells, 100 nM Englerin A stimulation; read-out: TRPC4 (IC50 class)
Procedure: ICLN-1694 cells (HEK-TREx hTRPC4) expressing TRPC4 were generated as follows. Commercially available HekTrex-293 cells were seeded at 0.7×10^6 cells/well in a 1×6-well plate 24 hrs prior to transfection using 2 mL cell growth media containing no antibiotics (1× DMEM/high glucose (Hyclone #SH30022.02); 10%0/fetal bovine serum (Sigma) 2 mM sodium pyruvate, 10 mM HEPES). […] On day 2, 2 μg of plasmid DNA plus 6 μl of Xtreme-GENE HP reagent in Optimem (200 μl total volume) was prepared and incubated for 15 min at room temperature. This plasmid solution was then gently overlayed dropwise onto each well and the plate was gently swirled to mix complex with the media for approximately 30 seconds. Transfected cells were incubated at 37° C. in a 10% C02 incubator for 24 hrs. The transfected cells were harvested and transferred into 2×150 mm dishes containing cell growth media with no antibiotics at 37° C.
The next day selection was initiated to generate a stable pool by adding cell growth media containing 150 μg/mL Hygromycin and 5 μg/mL Blasticidin and cells were allowed to grow. Media with the selection agent was changed every 1-2 days as needed to remove dead cells. After 7 days, the hygromycin concentration was reduced to 75 μg/mL and cells growth was allowed to continue.
Single clones were selected as follows. The stable pool was diluted to 10 cells/mL and seeded (100 μl/well) into 24×96 well plates (˜1 cell/well) and allowed to grow for 7 days in cell growth media. Fresh media (100 μl) was added and the cells allowed to grow for another 1-2 weeks and then stored frozen or used immediately.
10-point dose response curves were generated using the Echo-550 acoustic dispenser. Compound source plates were made by serially diluting compound stocks to create 10 mM, 1 mM, and 0.1 mM solutions in DMSO into Echo-certified LDV plates. The Echo then serially spotted 100% DMSO stock solutions into source dose response plates to generate a 4-fold dilution scheme. 100% DMSO was added to the spotted dose response plates to bring the final volume to 5 μl. […] of the dose response stock plate was then spotted into pre-incubation and stimulation assay plates. 50 μl of pre-incubation buffer and 100 μl of stimulation buffer was then added to the plates resulting in a final assay test concentration range of 30 μM to 0.0001 μM with a final DMSO concentration of 0.3%.
ICLN-1694 cells (HEK-TREx hTRPC4) were plated onto 384 well, black pdl-coated microplates and maintained in cell growth media supplemented with 1 μg/mL tetracycline the day prior to use for experiments. TRPC4 expression was induced by the application of 1 μg/mL tetracycline at the time of plating. […] Cells were incubated at room temperature, protected from light, for 60-90 minutes. After the incubation period, the dye was removed and replaced with 10 μl of EBSS. Cell, pre-incubation and stimulation plates were loaded onto the FLIPR-II and the assay was initiated. The FLIPR measured a 10 second baseline and then added 10 μl of 2X compounds (or controls). Changes in fluorescence were monitored for an additional 5 minutes. After a 5 minute pre-incubation, 20 μl of 2X Englerin A (with 1X compound or controls) was added to the cell plate. The final Englerin A stimulation concentration in the assay was 100 nM. After the Englerin A addition, changes in fluorescence were monitored for an additional 5 minutes.
Compound modulation of TRPC4 calcium response was determined as follows. After the Englerin A, fluorescence was monitored for a 5-minute period. The maximum relative fluorescence response (minus the control response of 1 μM of an internal control compound known to maximally block TRPC4 calcium response, the “REF INHIB” in the formula below) was captured and exported from the FLIPR.
Compound effect is calculated as % inhibition using the following formula:
[formula] wherein “RFU” is the relative fluorescent units.

First: O=c1[nH]ncc(N2CCc3c(nc(NCCO)nc3Oc3ccccc3C(F)(F)F)C2)c1Cl [Compound 115, 4-chloro-5-[2-[(2-hydroxyethyl)amino]-4-[2-(trifluoromethyl)phenoxy]-5H,6H,7H,8H-pyrido[3,4-d]pyrimidin-7-yl]-2,3-dihydropyridazin-3-one]
Second: Nc1nc2c(c(Oc3ccccc3C(F)(F)F)n1)CCN(c1cn[nH]c(=O)c1Cl)C2 [Compound 102]
The IC50 of the first is higher: 50 to 500 nM for the first, under 50 nM for the second.

First: Nc1nc2c(c(Oc3ccc(F)cc3Cl)n1)CCN(c1cn[nH]c(=O)c1Cl)C2 [Compound 112, 5-[2-amino-4-(2-chloro-4-fluorophenoxy)-5H,6H,7H,8H-pyrido[3,4-d]pyrimidin-7-yl]-4-chloro-2,3-dihydropyridazin-3-one]
Second: O=c1[nH]ncc(N2CCc3c(nc(CO)nc3Oc3ccc(F)cc3Cl)C2)c1Cl [Compound 114]
The IC50 of the first is higher: 50 to 500 nM for the first, under 50 nM for the second. The second is the more potent here.

First: CCc1c(F)cccc1Oc1ncnc2c1CCN(c1cn[nH]c(=O)c1Cl)C2 [Compound 109, 4-Chloro-5-[4-(2-ethyl-3-fluorophenoxy)-5H,6H,7H,8H-pyrido[3,4-d]pyrimidin-7-yl]-2,3-dihydropyridazin-3-one]
Second: O=c1[nH]ncc(N2CCc3c(ncnc3Oc3ccccc3Cl)C2)c1Cl [Compound 101]
The IC50 of the first is higher: 50 to 500 nM for the first, under 50 nM for the second. The second is the more potent here.

First: C[C@@H]1c2ncnc(Oc3ccc(F)cc3Cl)c2CCN1c1cn[nH]c(=O)c1Cl [Compound 118, 4-chloro-5-[(8R)-4-(2-chloro-4-fluorophenoxy)-8-methyl-5H,6H,7H,8H-pyrido[3,4-d]pyrimidin-7-yl]-2,3-dihydropyridazin-3-one]
Second: C[C@@H](O)c1nc2c(c(Oc3ccc(F)cc3Cl)n1)CCN(c1cn[nH]c(=O)c1Cl)C2 [Compound 119]
The IC50 of the first is higher: 50 to 500 nM for the first, under 50 nM for the second. The second is the more potent here.

`O=c1[nH]ncc(N2CCc3c(ncnc3Oc3cnccc3C(F)(F)F)C2)c1Cl` [Compound 107] and `O=c1[nH]ncc(N2CCc3c(ncnc3Oc3cc(F)ccc3C(F)(F)F)C2)c1Cl` [Compound 106] fall in the same range of IC50: 50 to 500 nM for the first, 50 to 500 nM for the second.

First: N#Cc1cccc(Oc2ncnc3c2CCN(c2cn[nH]c(=O)c2Cl)C3)c1Cl [Compound 108, 2-Chloro-3-[[7-(5-chloro-6-oxo-1,6-dihydropyridazin-4-yl)-5H,6H,7H,8H-pyrido[3,4-d]pyrimidin-4-yl]oxy]benzonitrile]
Second: O=c1[nH]ncc(N2CCc3c(ncnc3Oc3ccccc3C(F)F)C2)c1Cl [Compound 103, 4-Chloro-5-[4-[2-(difluoromethyl)phenoxy]-5H,6H,7H,8H-pyrido[3,4-d]pyrimidin-7-yl]-2,3-dihydropyridazin-3-one]
The IC50 of the first is higher: 500 to 1000 nM for the first, under 50 nM for the second. The second is the more potent here.

`COc1nc2c(c(Oc3ccccc3C(F)(F)F)n1)CCN(c1cn[nH]c(=O)c1Cl)C2` [Compound 110, 4-Chloro-5-[2-methoxy-4-[2-(trifluoromethyl)phenoxy]-5H,6H,7H,8H-pyrido[3,4-d]pyrimidin-7-yl]-2,3-dihydropyridazin-3-one] and `Nc1nc2c(c(Oc3ccc(F)cc3C(F)(F)F)n1)CCN(c1cn[nH]c(=O)c1Cl)C2` [Compound 116] cannot be ordered by IC50: under 50 nM for the first, under 50 nM for the second.

`O=c1[nH]ncc(N2CCc3c(ncnc3Oc3ccc(F)cc3C(F)F)C2)c1Cl` [Compound 105] and `O=c1[nH]ncc(N2CCc3c(ccnc3Oc3ccc(F)cc3C(F)(F)F)C2)c1Cl` [Compound 120, 4-chloro-5-[5-[4-fluoro-2-(trifluoromethyl)phenoxy]-1,2,3,4-tetrahydro-2,6-naphthyridin-2-yl]-2,3-dihydropyridazin-3-one] cannot be ordered by IC50: under 50 nM for the first, under 50 nM for the second.

Compound `Nc1nc2c(c(Oc3ccccc3Cl)n1)CCN(c1cn[nH]c(=O)c1Cl)C2` [Compound 113] has an IC50 of 50 to 500 nM.
